# Measured values published in patent US9447038B2 (SANOFI, priority 2012, dated 2016).
# Where a name gives a salt, the structure may show the parent alone.
# Target: human CXCR3-A receptor (Homo sapiens (Human), UniProt P49682)
# Test: 125I-CXCL10 competition radioligand binding assay;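 further: One-hour incubation of membranes with tracer, bound radioligand separated by glass fibre filtration, IC50 derived from four-parameter nonlinear fit of competition curves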
# Settings: displacement of 125I-CXCL10 from membranes of CHO cells expressing human recombinant CXCR3-A
# human CXCR3-A receptor, sequence (P49682 whole entry): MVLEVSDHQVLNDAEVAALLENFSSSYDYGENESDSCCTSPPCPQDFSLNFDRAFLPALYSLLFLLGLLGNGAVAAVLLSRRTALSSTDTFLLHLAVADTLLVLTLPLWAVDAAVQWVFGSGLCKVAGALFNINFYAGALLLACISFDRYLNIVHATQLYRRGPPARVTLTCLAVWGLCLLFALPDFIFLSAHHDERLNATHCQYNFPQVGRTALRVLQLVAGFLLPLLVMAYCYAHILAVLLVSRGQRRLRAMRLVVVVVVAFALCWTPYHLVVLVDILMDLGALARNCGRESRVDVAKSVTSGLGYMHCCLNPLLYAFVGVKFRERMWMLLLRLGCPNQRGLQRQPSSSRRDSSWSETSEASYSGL
row,Structure (SMILES),IC50 [nM]
1,"CC(C)CN(Cc1ccc(OCCN2C(=O)CCC2=O)c(F)c1)[C@H](CC(=O)O)c1ccc(Cl)c(F)c1 [Example 22, (R)-3-(4-Chloro-3-fluoro-phenyl)-3-({4-[2-(2,5-dioxo-pyrrolidin-1-yl)-ethoxy]-3-fluoro-benzyl}-isobutyl-amino)-propionic acid; hydrochloride]",531
2,"COc1cc(CN(CC2CCCCC2)C(CC(=O)O)c2ccc3c(c2)CCO3)ccc1OCCN1C(=O)CCC1=O (stereo not shown) [Example 148, 3-(Cyclohexylmethyl-{4-[2-(2,5-dioxo-pyrrolidin-1-yl)-ethoxy]-3-methoxy-benzyl}-amino)-3-(2,3-dihydro-benzofuran-5-yl)-propionic acid]",28
3,"COc1cc(CN(CC2CC2)C(CC(=O)O)c2ccc(Cl)cc2Cl)ccc1OCCn1c(=O)ccn(C)c1=O (stereo not shown) [Example 156, 3-(Cyclopropylmethyl-{3-methoxy-4-[2-(3-methyl-2,6-dioxo-3,6-dihydro-2H-pyrimidin-1-yl)-ethoxy]-benzyl}-amino)-3-(2,4-dichloro-phenyl)-propionic acid]",120
4,"Cc1cc(CN(CC2CCCCC2)[C@H](CC(=O)O)c2ccc(Cl)c(F)c2)ccc1OCCN1C(=O)CN(C)C1=O [Example 35, (R)-3-(4-Chloro-3-fluoro-phenyl)-3-(cyclohexylmethyl-{3-methyl-4-[2-(3-methyl-2,5-dioxo-imidazolidin-1-yl)-ethoxy]-benzyl}-amino)-propionic acid]",75
5,"CCCN(Cc1ccc(OCCN2C(=O)CCC2=O)c(F)c1)C(c1ccc(Cl)cc1)C(C)C(=O)O (stereo not shown) [Example 195, 3-(4-Chloro-phenyl)-3-({4-[2-(2,5-dioxo-pyrrolidin-1-yl)-ethoxy]-3-fluoro-benzyl}-propyl-amino)-2-methyl-propionic acid]",342
6,"CCCN(Cc1ccc(OCCN2C(=O)CCC2=O)c(OC)c1)C(CC(=O)O)c1cc(C)sc1C (stereo not shown) [Example 204, 3-(2,5-Dimethyl-thiophen-3-yl)-3-({4-[2-(2,5-dioxo-pyrrolidin-1-yl)-ethoxy]-3-methoxy-benzyl}-propyl-amino)-propionic acid; hydrochloride]",197
7,"CCN(Cc1ccc(OCCN2C(=O)CCC2=O)c(OC)c1)C(C(=O)O)c1ccc(Cl)cc1 (stereo not shown) [Example 182, (4-Chloro-phenyl)-({4-[2-(2,5-dioxo-pyrrolidin-1-yl)-ethoxy]-3-methoxy-benzyl}-ethyl-amino)-acetic acid]",3900
8,"Cc1cc(CN(CC(C)C)C(CC(=O)O)c2ccc(Cl)cc2)ccc1CCCN1C(=O)CCC1=O (stereo not shown) [Example 137, 3-(4-Chloro-phenyl)-3-({4-[3-(2,5-dioxo-pyrrolidin-1-yl)-propyl]-3-methyl-benzyl}-isobutyl-amino)-propionic acid]",240
9,"COc1cc(CN(CC2CC2)C(c2ccc(Cl)cc2)C(C)C(=O)O)ccc1OCCN1C(=O)CCC1=O (stereo not shown) [Example 187, 3-(4-Chloro-phenyl)-3-(cyclopropylmethyl-{4-[2-(2,5-dioxo-pyrrolidin-1-yl)-ethoxy]-3-methoxy-benzyl}-amino)-2-methyl-propionic acid]",71
10,"Cc1cc(CN(CC2CCCC2)[C@H](CC(=O)O)c2ccc(Cl)c(F)c2)ccc1OCCN1C(=O)CN(C)C1=O [Example 33, (R)-3-(4-Chloro-3-fluoro-phenyl)-3-(cyclopentylmethyl-{3-methyl-4-[2-(3-methyl-2,5-dioxo-imidazolidin-1-yl)-ethoxy]-benzyl}-amino)-propionic acid]",86
11,"Cc1cc(CN(CC2CCC2)[C@@H](CC(=O)O)c2ccc(Cl)cc2)ccc1OCCN1C(=O)CCC1=O [Example 71, (S)-3-(4-Chloro-phenyl)-3-(cyclobutylmethyl-{4-[2-(2,5-dioxo-pyrrolidin-1-yl)-ethoxy]-3-methyl-benzyl}-amino)-propionic acid]",54
12,"CCCN(Cc1ccc(OCCN2C(=O)CCC2=O)c(Cl)c1)C(CC(=O)O)c1ccc(Cl)cc1 (stereo not shown) [Example 103, 3-({3-Chloro-4-[2-(2,5-dioxo-pyrrolidin-1-yl)-ethoxy]-benzyl}-propyl-amino)-3-(4-chloro-phenyl)-propionic acid]",170
13,"COc1cc(CN(CC2CCCCC2)C2c3ccc(Cl)cc3CC2C(=O)O)ccc1OCCN1C(=O)CCC1=O (stereo not shown) [Example 169, 5-Chloro-1-(cyclohexylmethyl-{4-[2-(2,5-dioxo-pyrrolidin-1-yl)-ethoxy]-3-methoxy-benzyl}-amino)-indan-2-carboxylic acid]",407
14,"CC(C)CN(Cc1ccc(OCCN2C(=O)CCC2=O)c(F)c1)[C@@H](CC(=O)O)c1ccc(Cl)c(F)c1 [Example 21, (S)-3-(4-Chloro-3-fluoro-phenyl)-3-({4-[2-(2,5-dioxo-pyrrolidin-1-yl)-ethoxy]-3-fluoro-benzyl}-isobutyl-amino)-propionic acid; hydrochloride]",66
15,"CCCN(Cc1ccc(OCCN2C(=O)CCC2=O)c(C)c1)C(CC(=O)O)c1ccc(Cl)c(F)c1 (stereo not shown) [Example 75, 3-(4-Chloro-3-fluoro-phenyl)-3-({4-[2-(2,5-dioxo-pyrrolidin-1-yl)-ethoxy]-3-methyl-benzyl}-propyl-amino)-propionic acid]",25
16,"CCCCN(Cc1ccc(OCCN2C(=O)CCC2=O)c(F)c1)C(CC(=O)O)c1ccc(Cl)cc1 (stereo not shown) [Example 54, 3-(Butyl-{4-[2-(2,5-dioxo-pyrrolidin-1-yl)-ethoxy]-3-fluoro-benzyl}-amino)-3-(4-chloro-phenyl)-propionic acid]",306
17,"Cc1cc(CN(CC2CCCCC2)[C@@H](CC(=O)O)c2ccc(Cl)cc2)ccc1OCCN1C(=O)CN(C)C1=O [Example 30, (S)-3-(4-Chloro-phenyl)-3-(cyclohexylmethyl-{3-methyl-4-[2-(3-methyl-2,5-dioxo-imidazolidin-1-yl)-ethoxy]-benzyl}-amino)-propionic acid]",55
18,"CCCN(Cc1ccc(OCCn2c(=O)ccn(C)c2=O)c(C)c1)C(CC(=O)O)c1ccc2c(c1)CCO2 (stereo not shown) [Example 155, 3-(2,3-Dihydro-benzofuran-5-yl)-3-({3-methyl-4-[2-(3-methyl-2,6-dioxo-3,6-dihydro-2H-pyrimidin-1-yl)-ethoxy]-benzyl}-propyl-amino)-propionic acid]",529
19,"COc1cc(CN(C2CCC2)C(CC(=O)O)c2ccc(Cl)cc2)ccc1CCCN1C(=O)CCC1=O (stereo not shown) [Example 138, 3-(4-Chloro-phenyl)-3-(cyclobutyl-{4-[3-(2,5-dioxo-pyrrolidin-1-yl)-propyl]-3-methoxy-benzyl}-amino)-propionic acid]",190

# Further compounds by falling IC50, results first:
row,IC50 [nM],Structure (SMILES)
1,5520,Cc1cc(CN(C)C(c2ccc(Cl)cc2)C(C)C(=O)O)ccc1OCCN1C(=O)CCC1=O (stereo not shown) [Example 176]
2,603,"CCCCN(Cc1ccc(OCCN2C(=O)CCC2=O)c(C)c1)C1c2ccc(Cl)cc2CC1C(=O)O (stereo not shown) [Example 173, 1-(Butyl-{4-[2-(2,5-dioxo-pyrrolidin-1-yl)-ethoxy]-3-methyl-benzyl}-amino)-5-chloro-indan-2-carboxylic acid]"
3,294,"O=C(O)C[C@H](c1ccc(Cl)cc1)N(Cc1ccc(OCCN2C(=O)CCC2=O)c(F)c1)CC1CCC1 [Example 55, (R)-3-(4-Chloro-phenyl)-3-(cyclobutylmethyl-{4-[2-(2,5-dioxo-pyrrolidin-1-yl)-ethoxy]-3-fluoro-benzyl}-amino)-propionic acid]"
4,200,"COc1cc(CN(CC2CC2)[C@H](C(=O)O)c2ccc(Cl)c(Cl)c2)ccc1OCCN1C(=O)CCC1=O [Example 108, (S)-(Cyclopropylmethyl-{4-[2-(2,5-dioxo-pyrrolidin-1-yl)-ethoxy]-3-methoxy-benzyl}-amino)-(3,4-dichloro-phenyl)-acetic acid]"
5,183,"CCCN(Cc1ccc(OCCN2C(=O)CCC2=O)c(F)c1)C(CC(=O)O)c1ccc(Cl)c(F)c1 (stereo not shown) [Example 58, 3-(4-Chloro-3-fluoro-phenyl)-3-({4-[2-(2,5-dioxo-pyrrolidin-1-yl)-ethoxy]-3-fluoro-benzyl}-propyl-amino)-propionic acid]"
6,100,"CCCCN(Cc1ccc(OCCN2C(=O)CCC2=O)c(C)c1)C(CC(=O)O)c1ccc(Cl)c(Cl)c1 (stereo not shown) [Example 81, 3-(Butyl-{4-[2-(2,5-dioxo-pyrrolidin-1-yl)-ethoxy]-3-methyl-benzyl}-amino)-3-(3,4-dichloro-phenyl)-propionic acid]"
7,98,"COc1cc(CN(CC2CCCCC2)C(CC(=O)O)c2ccc(Cl)c(Cl)c2)ccc1OCCN1C(=O)CCC1=O (stereo not shown) [Example 50, 3-(Cyclohexylmethyl-{4-[2-(2,5-dioxo-pyrrolidin-1-yl)-ethoxy]-3-methoxy-benzyl}-amino)-3-(3,4-dichloro-phenyl)-propionic acid]"
8,83,"O=C(O)CC(c1ccc(Cl)cc1)N(Cc1ccc(OCCN2C(=O)CCC2=O)c(Cl)c1)CC1CC1 (stereo not shown) [Example 102, 3-({3-Chloro-4-[2-(2,5-dioxo-pyrrolidin-1-yl)-ethoxy]-benzyl}-cyclopropylmethyl-amino)-3-(4-chloro-phenyl)-propionic acid; hydrochloride]"
9,52,"O=C(O)CC(c1ccc(Cl)cc1)N(Cc1ccc(OCCN2C(=O)CCC2=O)c(F)c1)CC1CCCC1 (stereo not shown) [Example 56, 3-(4-Chloro-phenyl)-3-(cyclopentylmethyl-{4-[2-(2,5-dioxo-pyrrolidin-1-yl)-ethoxy]-3-fluoro-benzyl}-amino)-propionic acid]"
10,43,"COc1cc(CN(CC2CCCCC2)C(CC(=O)O)c2ccc(Cl)c(F)c2)ccc1OCCN1C(=O)CCC1=O (stereo not shown) [Example 44, 3-(4-Chloro-3-fluoro-phenyl)-3-(cyclohexylmethyl-{4-[2-(2,5-dioxo-pyrrolidin-1-yl)-ethoxy]-3-methoxy-benzyl}-amino)-propionic acid]"
11,34,"Cc1cc(CN(CC2CC2)C(CC(=O)O)c2ccc(Cl)c(F)c2)ccc1OCCN1C(=O)CCC1=O (stereo not shown) [Example 74, 3-(4-Chloro-3-fluoro-phenyl)-3-(cyclopropylmethyl-{4-[2-(2,5-dioxo-pyrrolidin-1-yl)-ethoxy]-3-methyl-benzyl}-amino)-propionic acid]"
12,20,"CCCN(Cc1ccc(OCCN2C(=O)CCC2=O)c(OC)c1)C(CC(=O)O)c1ccc(Cl)cc1 (stereo not shown) [Example 37, 3-(4-Chloro-phenyl)-3-({4-[2-(2,5-dioxo-pyrrolidin-1-yl)-ethoxy]-3-methoxy-benzyl}-propyl-amino)-propionic acid]"
